Usually IC50 stands for the concentration at which inhibition is half-maximal. A word on the GI50: it is the concentration at which growth is held to half of that of the control. Usually TGI stands for the concentration giving total growth inhibition. A word on the Kd: it is the equilibrium constant for the complex coming apart.

Each structure is given as a SMILES string. Calls of active or inactive are those of the source. No cut-off for these calls is given here. Where only a bound is given, the exact number is not on record here.

Series [1] deals with T1, Receptor tyrosine-protein kinase erbB-4 (Homo sapiens, UniProt Q15303). Description: Inhibition of HER4 (unknown origin) in presence of radiolabelled gammaATP by radioisotope filter binding assay.
Series [2] concerns MOLT-4. Description: Cytotoxicity against human MOLT4 cells assessed as growth inhibition incubated for 48 hrs by SRB assay. The format is functional. To be noted: MOLT-4, 48 h. (In general: The SRB assay estimates cell density from bound dye.)
In another series the test system is CCRF-CEM. Description: Cytotoxicity against human CCRF-CEM cells assessed as growth inhibition incubated for 48 hrs by SRB assay. The format is functional.
The next series relates to M14. In words: Cytotoxicity against human M14 cells assessed as growth inhibition incubated for 48 hrs by SRB assay. The class given is functional. To be noted: M14, 48 h.
The subject of the next series is MDA-MB-231. Description: Cytotoxicity against human MDA-MB-231 cells assessed as growth inhibition incubated for 48 hrs by SRB assay. The class given is functional. To be noted: MDA-MB-231, 48 h.
Series [3] deals with T2, Epidermal growth factor receptor (Homo sapiens, UniProt P00533). Description: Inhibition of wild type EGFR (unknown origin) in presence of radiolabelled gammaATP by radioisotope filter binding assay.
T2 sequence (P00533 whole entry): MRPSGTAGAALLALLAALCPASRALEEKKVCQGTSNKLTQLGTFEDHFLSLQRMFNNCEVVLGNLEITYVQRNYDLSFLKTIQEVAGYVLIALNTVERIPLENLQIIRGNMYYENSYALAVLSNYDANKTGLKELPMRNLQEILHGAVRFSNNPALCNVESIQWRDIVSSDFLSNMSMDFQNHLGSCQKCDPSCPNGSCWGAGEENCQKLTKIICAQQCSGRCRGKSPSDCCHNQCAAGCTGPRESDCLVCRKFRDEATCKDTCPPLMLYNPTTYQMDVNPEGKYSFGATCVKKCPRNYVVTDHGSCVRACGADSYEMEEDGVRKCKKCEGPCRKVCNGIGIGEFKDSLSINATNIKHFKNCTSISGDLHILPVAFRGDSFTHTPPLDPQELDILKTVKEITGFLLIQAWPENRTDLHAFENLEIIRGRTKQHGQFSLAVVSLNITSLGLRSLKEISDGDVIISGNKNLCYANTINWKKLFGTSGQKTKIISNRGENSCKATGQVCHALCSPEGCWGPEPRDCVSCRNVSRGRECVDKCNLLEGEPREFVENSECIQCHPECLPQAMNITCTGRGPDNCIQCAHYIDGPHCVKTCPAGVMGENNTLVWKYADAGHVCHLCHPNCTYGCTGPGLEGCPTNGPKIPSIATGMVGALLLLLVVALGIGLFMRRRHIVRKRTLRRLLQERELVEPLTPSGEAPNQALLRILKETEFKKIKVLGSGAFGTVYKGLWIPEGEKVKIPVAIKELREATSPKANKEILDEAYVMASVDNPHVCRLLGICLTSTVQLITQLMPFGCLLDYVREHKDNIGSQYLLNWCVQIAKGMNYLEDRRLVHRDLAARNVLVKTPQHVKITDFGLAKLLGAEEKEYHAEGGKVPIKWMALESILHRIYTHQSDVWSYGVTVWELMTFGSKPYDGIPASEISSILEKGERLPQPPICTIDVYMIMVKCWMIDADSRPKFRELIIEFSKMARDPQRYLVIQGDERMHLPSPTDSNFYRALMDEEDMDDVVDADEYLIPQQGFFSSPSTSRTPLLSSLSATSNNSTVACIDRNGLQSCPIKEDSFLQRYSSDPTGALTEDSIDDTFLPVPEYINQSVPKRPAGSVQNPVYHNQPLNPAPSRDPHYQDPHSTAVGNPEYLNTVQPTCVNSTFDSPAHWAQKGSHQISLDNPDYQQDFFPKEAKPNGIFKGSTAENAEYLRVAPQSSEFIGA
The subject of a further series is SR. In words: Cytotoxicity against human SR cells assessed as growth inhibition incubated for 48 hrs by SRB assay. The class given is functional.
Another series relates to Hs-578T. Description: Cytotoxicity against human Hs578T cells assessed as growth inhibition incubated for 48 hrs by SRB assay. The class given is functional.
The subject of another series is SK-MEL-28. In words: Cytotoxicity against human SK-MEL-28 cells assessed as growth inhibition incubated for 48 hrs by SRB assay. The class given is functional. To be noted: SK-MEL-28, 48 h.
The target in series [4] is Epidermal growth factor receptor (Homo sapiens, UniProt P00533, EX19DEL). In words: Inhibition of EGFR ex19del mutant (unknown origin) in presence of radiolabelled gammaATP by radioisotope filter binding assay.
Epidermal growth factor receptor (Homo sapiens, UniProt P00533, EX19DEL), sequence (P00533 whole entry, looked up, stated change not applied): as the sequence (P00533 whole entry) above
The test system of a further series is MCF7. In words: Cytotoxicity against human MCF7 cells assessed as growth inhibition incubated for 48 hrs by SRB assay. The format is functional. The settings on record: MCF7, 48 h.
Series [5] deals with NCI-H460. Description: Cytotoxicity against human NCI-H460 cells assessed as growth inhibition incubated for 48 hrs by SRB assay. The class given is functional. The settings on record: NCI-H460, 48 h.
The target in series [6] is T3, Receptor tyrosine-protein kinase erbB-2 (Homo sapiens, UniProt P04626). In words: Inhibition of HER2 (unknown origin) in presence of radiolabelled gammaATP by radioisotope filter binding assay.
T3 sequence (P04626 whole entry): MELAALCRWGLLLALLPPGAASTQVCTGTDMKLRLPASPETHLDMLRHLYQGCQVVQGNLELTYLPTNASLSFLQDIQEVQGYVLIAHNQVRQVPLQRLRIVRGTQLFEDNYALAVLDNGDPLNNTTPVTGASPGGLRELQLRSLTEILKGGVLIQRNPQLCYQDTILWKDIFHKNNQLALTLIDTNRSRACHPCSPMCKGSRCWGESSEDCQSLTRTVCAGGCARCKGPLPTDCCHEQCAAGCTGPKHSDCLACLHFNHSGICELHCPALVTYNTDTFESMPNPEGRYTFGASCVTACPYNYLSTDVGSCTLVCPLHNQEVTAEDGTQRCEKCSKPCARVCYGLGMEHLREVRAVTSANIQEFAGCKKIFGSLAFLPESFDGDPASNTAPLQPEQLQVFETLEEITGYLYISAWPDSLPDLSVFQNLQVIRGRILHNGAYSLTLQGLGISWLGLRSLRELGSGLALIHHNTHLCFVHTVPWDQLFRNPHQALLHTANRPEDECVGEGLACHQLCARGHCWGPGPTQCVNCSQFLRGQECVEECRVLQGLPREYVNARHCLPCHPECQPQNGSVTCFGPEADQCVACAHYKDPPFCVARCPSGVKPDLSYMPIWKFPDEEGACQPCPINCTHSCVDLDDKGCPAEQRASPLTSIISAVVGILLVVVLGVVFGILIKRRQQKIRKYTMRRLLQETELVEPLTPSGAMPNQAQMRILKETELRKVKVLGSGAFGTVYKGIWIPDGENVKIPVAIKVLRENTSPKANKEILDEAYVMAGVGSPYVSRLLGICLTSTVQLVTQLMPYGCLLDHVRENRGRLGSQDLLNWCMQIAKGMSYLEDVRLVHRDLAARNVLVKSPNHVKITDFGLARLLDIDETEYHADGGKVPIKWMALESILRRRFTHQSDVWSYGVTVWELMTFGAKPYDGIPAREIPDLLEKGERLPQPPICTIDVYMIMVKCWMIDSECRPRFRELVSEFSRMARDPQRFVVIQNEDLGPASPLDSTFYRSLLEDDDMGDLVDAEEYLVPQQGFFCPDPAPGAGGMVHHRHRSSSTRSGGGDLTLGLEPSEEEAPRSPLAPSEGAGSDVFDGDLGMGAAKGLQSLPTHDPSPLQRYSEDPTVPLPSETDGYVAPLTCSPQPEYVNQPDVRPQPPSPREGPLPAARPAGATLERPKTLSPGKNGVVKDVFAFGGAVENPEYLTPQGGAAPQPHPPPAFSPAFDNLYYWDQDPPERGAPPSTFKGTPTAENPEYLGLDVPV
In the next series the test system is SF-268. In words: Cytotoxicity against human SF268 cells assessed as growth inhibition incubated for 48 hrs by SRB assay. To be noted: SF-268, 48 h. The format is functional.
In series [7] the target is T4, Epidermal growth factor receptor (Homo sapiens, UniProt P00533, L858R). Description: Inhibition of EGFR L858R mutant (unknown origin) in presence of radiolabelled gammaATP by radioisotope filter binding assay.
T4 sequence (P00533 25-1210 L858R limits assumed): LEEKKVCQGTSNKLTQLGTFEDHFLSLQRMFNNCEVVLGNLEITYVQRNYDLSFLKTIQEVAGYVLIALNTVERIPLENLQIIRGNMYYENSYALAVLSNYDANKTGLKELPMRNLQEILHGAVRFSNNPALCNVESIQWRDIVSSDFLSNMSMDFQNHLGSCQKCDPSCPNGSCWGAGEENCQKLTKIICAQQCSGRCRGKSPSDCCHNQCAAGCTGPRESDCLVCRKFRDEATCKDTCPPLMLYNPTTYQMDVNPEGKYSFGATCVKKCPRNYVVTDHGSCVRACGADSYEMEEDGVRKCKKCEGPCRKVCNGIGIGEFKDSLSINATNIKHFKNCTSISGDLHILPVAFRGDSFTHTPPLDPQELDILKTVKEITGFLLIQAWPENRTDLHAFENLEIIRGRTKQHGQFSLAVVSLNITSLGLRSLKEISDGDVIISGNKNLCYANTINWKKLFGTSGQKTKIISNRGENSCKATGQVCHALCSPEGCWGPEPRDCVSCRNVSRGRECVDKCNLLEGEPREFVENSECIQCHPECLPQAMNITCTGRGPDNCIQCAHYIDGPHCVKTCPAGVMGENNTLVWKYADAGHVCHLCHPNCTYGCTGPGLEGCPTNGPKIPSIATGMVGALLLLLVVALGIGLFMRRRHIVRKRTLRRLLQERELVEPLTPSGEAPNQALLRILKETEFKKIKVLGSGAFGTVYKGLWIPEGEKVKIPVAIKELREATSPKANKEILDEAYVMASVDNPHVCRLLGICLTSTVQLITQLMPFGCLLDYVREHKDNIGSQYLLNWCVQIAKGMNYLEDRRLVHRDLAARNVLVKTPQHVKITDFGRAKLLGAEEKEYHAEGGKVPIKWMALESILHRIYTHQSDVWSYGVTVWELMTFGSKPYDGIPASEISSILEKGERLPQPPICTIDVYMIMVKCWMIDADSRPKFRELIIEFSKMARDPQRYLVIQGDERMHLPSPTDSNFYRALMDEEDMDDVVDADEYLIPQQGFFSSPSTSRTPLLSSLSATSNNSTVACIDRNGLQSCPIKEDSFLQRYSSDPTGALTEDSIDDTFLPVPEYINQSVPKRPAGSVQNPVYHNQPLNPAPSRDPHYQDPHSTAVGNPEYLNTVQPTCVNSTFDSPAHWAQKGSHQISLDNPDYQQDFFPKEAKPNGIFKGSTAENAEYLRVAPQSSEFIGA
A further series relates to DU-145. In words: Cytotoxicity against human DU145 cells assessed as growth inhibition incubated for 48 hrs by SRB assay. The class given is functional. To be noted: DU-145, 48 h.
Another series deals with MDA-MB-468. In words: Cytotoxicity against human MDA-MB-468 cells assessed as growth inhibition incubated for 48 hrs by SRB assay. The class given is functional. To be noted: MDA-MB-468, 48 h.
The test system of the next series is PC-3. In words: Cytotoxicity against human PC3 cells assessed as growth inhibition incubated for 48 hrs by SRB assay. The format is functional. To be noted: PC-3, 48 h.
Another series relates to NCI-H226. In words: Cytotoxicity against human NCI-H226 cells assessed as growth inhibition incubated for 48 hrs by SRB assay. The format is functional. The settings on record: NCI-H226, 48 h.
Another series has as its system HCT-116. Description: Cytotoxicity against human HCT116 cells assessed as growth inhibition incubated for 48 hrs by SRB assay. The format is functional. To be noted: HCT-116, 48 h.
The test system of another series is K562. Description: Cytotoxicity against human K562 cells assessed as growth inhibition incubated for 48 hrs by SRB assay. The format is functional. The settings on record: K562, 48 h.
Series [8] can be described thus: Toxicity in NMRI mouse xenografted with human HCT116 cells assessed as toxic signs at 10 mg/kg, ip administered for 14 days and observed on day 14. To be noted: in vivo, 336 h. The class given is organism-based, HCT-116.
A short description of series [9]: Toxicity in NMRI mouse xenografted with human MOLT4 cells assessed as weight loss at 10 mg/kg, ip administered for 14 days and observed on day 14. The format is organism-based, MOLT-4. The settings on record: in vivo, 336 h. A general note: Xenograft models place foreign cells or tissue in a host animal.
The test system of series [10] is NCI-H460. In words: Antitumor activity against human NCI-H460 cells loaded in hollow fibers implanted intraperitoneally in NMRI mouse assessed as reduction in cell viability at 10 mg/kg, ip administered for 14 days by celltiter glo assay. The class given is functional, organism-based.
Series [11] deals with T2, Epidermal growth factor receptor. Description: Inhibition of recombinant human N-terminal GST-tagged EGFR (669 to 1210 residues) expressed in baculovirus expression system by competitive binding assay.
For series [12], the target named is T4, Epidermal growth factor receptor. In words: Inhibition of recombinant human N-terminal GST-tagged EGFR L858R mutant (669 to 1210 residues) expressed in baculovirus expression system by competitive binding assay.
The subject of series [13] is MOLT-4. Description: Antitumor activity against human MOLT4 cells loaded in hollow fibers implanted intraperitoneally in NMRI mouse assessed as reduction in cell viability at 10 mg/kg, ip administered for 14 days by celltiter glo assay. The class given is functional, organism-based. For orientation: In ATP-based viability assays light output follows the ATP content of the culture.

Series [14] deals with Epidermal growth factor receptor (Homo sapiens, UniProt P00533, L858R/T790M). In words: Inhibition of EGFR L858R/T790M mutant (unknown origin) in presence of radiolabelled gammaATP by radioisotope filter binding assay.
In series [15] the target is T3, Receptor tyrosine-protein kinase erbB-2.
Description: Inhibition of recombinant human N-terminal His-tagged HER2 (676 to 1255 residues) expressed in baculovirus expression system by competitive binding assay
The target of series [16] is T1, Receptor tyrosine-protein kinase erbB-4. In words: Inhibition of recombinant human wild type partial length HER4 (690 to 994 residues) expressed in bacterial expression system by competitive binding assay.
Series [17] is described as follows: Toxicity in NMRI mouse xenografted with human NCI-H460 cells assessed as toxic signs at 10 mg/kg, ip administered for 14 days and observed on day 14. The class given is organism-based. To be noted: in vivo, 336 h.
Series [18] can be described thus: Toxicity in NMRI mouse xenografted with human NCI-H460 cells assessed as weight loss at 10 mg/kg, ip administered for 14 days and observed on day 14. The format is organism-based. The settings on record: in vivo, 336 h.
The nature of series [19]: Toxicity in NMRI mouse xenografted with human HCT116 cells assessed as weight loss at 10 mg/kg, ip administered for 14 days and observed on day 14. The class given is organism-based, HCT-116. To be noted: in vivo, 336 h.
Series [20] concerns the target T4, Epidermal growth factor receptor. In words: Inhibition of recombinant human partial length EGFR L858R mutant (669 to 1011 residues) expressed in bacterial expression system by competitive binding assay.
Series [21] in a line: Toxicity in NMRI mouse xenografted with human MOLT4 cells assessed as toxic signs at 10 mg/kg, ip administered for 14 days and observed on day 14. The format is organism-based, MOLT-4. The settings on record: in vivo, 336 h.
Series [22] deals with T1, Receptor tyrosine-protein kinase erbB-4.
Description: Inhibition of recombinant human N-terminal GST-tagged HER4 (676 to 1308 residues) expressed in baculovirus expression system by competitive binding assay
Series [23] concerns the target Receptor tyrosine-protein kinase erbB-3 (Homo sapiens, UniProt P21860). In words: Inhibition of recombinant human wild type partial length HER3 (684 to 987 residues) expressed in mammalian expression system by competitive binding assay.

For `N#Cc1cnc2ccc(NC(=O)C3CSSC3)cc2c1Nc1ccc(OCc2cccc(F)c2)c(Cl)c1`, the IC50 in series [1] came out at 284 nM.
In the case of `N#Cc1cnc2cc(OC[C@H](O)CO)c(NC(=O)CC3CSSC3)cc2c1Nc1ccc(OCc2cccc(F)c2)c(Cl)c1`, the GI50 with MOLT-4 [2] stood at 93 nM; in the series on CCRF-CEM, 112 nM; in the series with M14, 141 nM; in the series on MDA-MB-231, 208 nM; in the series with SR, 132 nM; with Hs-578T, 512 nM. The concentration for 50% growth inhibition (GI50) was found to be 129 nM in the series with SK-MEL-28; 91 nM in the series with MCF7; 128 nM with NCI-H460 [5]; 404 nM with SF-268; 637 nM with DU-145; 120 nM with MDA-MB-468. The GI50 in the series on PC-3 amounted to 174 nM; in the series with NCI-H226, 690 nM; in the series on HCT-116, 98 nM; in the series with K562, 148 nM. Further, the concentration for total growth inhibition (TGI) came to 209 nM with MOLT-4 [2]; 283 nM with CCRF-CEM; 482 nM in the series on M14; 722 nM in the series on MDA-MB-231; 608 nM with SR; 1740 nM in the series with Hs-578T. Further, the TGI with SK-MEL-28 was determined as 350 nM; in the series on MCF7, 193 nM; in the series on NCI-H460 [5], 312 nM; in the series with SF-268, 1320 nM; in the series with DU-145, 1360 nM; in the series on MDA-MB-468, 385 nM. Moreover, the TGI with PC-3 amounted to 455 nM; in the series with NCI-H226, 1830 nM; in the series on HCT-116, 209 nM; in the series on K562 it was 454 nM. Moreover, the IC50 came out at 2 nM in [3]; 0.19 nM in series [1]; 1280 nM in [4]; 104 nM in series [6]; 387 nM in [7].
`C=CC(=O)Nc1cc2c(Nc3ccc(F)c(Cl)c3)ccnc2cc1OCCC1CC12CCN(C)CC2` (configuration not stated): in series [1], the half-inhibitory concentration (IC50) stood at 1.2 nM.
Regarding `N#Cc1cnc2cc(OC[C@@H](O)CO)c(NC(=O)CC3CSSC3)cc2c1Nc1ccc(OCc2cccc(F)c2)c(Cl)c1`, the Activity entry in [8], in series [9], in series [17], in [18], in [19] and in series [21] was “Non-Toxic” throughout. Also, the inhibition result in the series on NCI-H460 [10] and in the series on MOLT-4 [13] was “Active” each time. For the same compound, the 50% growth inhibitory concentration (GI50) in the series with MOLT-4 [2] was 74 nM; in the series on CCRF-CEM, 42 nM; in the series with M14 it was 83 nM; with MDA-MB-231, 103 nM; in the series on SR, 66 nM; in the series with Hs-578T, 105 nM. Also, the GI50 with SK-MEL-28 amounted to 63 nM; with MCF7 it was 86 nM; with NCI-H460 [5], 103 nM; in the series on SF-268, 83 nM; in the series with DU-145, 134 nM; in the series on MDA-MB-468 it was 70 nM. Besides, the GI50 turned out to be 89 nM with PC-3, 198 nM in the series with NCI-H226, 88 nM in the series on HCT-116 and 94 nM with K562. Moreover, the total growth inhibition concentration (TGI) amounted to 175 nM in the series on MOLT-4 [2]; 146 nM with CCRF-CEM; 251 nM in the series with M14; 237 nM in the series on MDA-MB-231; 246 nM with SR; 282 nM in the series with Hs-578T. In addition, the total growth inhibition concentration (TGI) in the series on SK-MEL-28 is 136 nM; with MCF7, 182 nM; in the series with NCI-H460 [5] it was 263 nM; in the series with SF-268 it was 778 nM; with DU-145, 424 nM; with MDA-MB-468 it was 155 nM. Moreover, the TGI in the series on PC-3 was found to be 204 nM; with NCI-H226, 883 nM; with HCT-116, 204 nM; with K562, 208 nM. Further, the IC50 in series [11] is 12.3 nM; in [12], 18.1 nM; in series [3] it was 2.4 nM; in series [1] it was 0.03 nM; in [14] it was above 10000 nM; in series [4], 1990 nM. Further, the half-inhibitory concentration (IC50) in series [15] came to 112 nM; in [6], 121 nM; in [7] it was 419 nM; in series [22], 12.2 nM. The dissociation constant (Kd) in series [16] is 6 nM; in series [20] it was 9.2 nM; in series [23], 380 nM.
`N#Cc1cnc2cc(OC[C@@H](O)CO)c(NC(=O)C3CSSC3)cc2c1Nc1ccc(OCc2cccc(F)c2)c(Cl)c1`: the half-inhibitory concentration (IC50) in series [3] was 1.5 nM; in series [1] it was 0.45 nM; in series [14], above 10000 nM; in [4] it was 204 nM; in series [7], 51 nM.

The values above are taken from ChEMBL document CHEMBL4622931, “Potent dual EGFR/Her4 tyrosine kinase inhibitors containing novel (1,2-dithiolan-4-yl)acetamides” (Bioorg Med Chem Lett, 2020).
